# From patent US9642859B2, “Use of capsazepine and analogs thereof to treat cancer” (THE BOARD OF REGENTS OF THE UNIVERSITY OF TEXAS SYSTEM, priority 2012, dated 2017)
# Entries after “also recorded” stand apart in the source; their conditions may differ.
# Key:
# OSCC cell lines = assay: ROS assays by flow cytometry (DCF-DA); type: cell-based, human; conditions: 30 μM capsazepine, 1 h
# Description: FIGS. 1I-1 to 1I-3. Reactive oxygen species (ROS) assays. The level of ROS in OSCC cell lines was examined by flow cytometry using 2,7-dichlorodihydrofluorescein diacetate (DCFH-DA; Sigma). Approximately 3×10^5 cells were plated in 12-well plates. To detect ROS, cells were incubated for 30 min at 37° C. with DCF-DA, washed and then treated for 1 h with 30 μM capsazepine (grey, thick line), 150 μM capsaicin (grey, thin line), 30 μM capsazepine+150 μM capsaicin (black line), or vehicle control (dotted line). The cells were harvested, washed twice, and analyzed by flow cytometry.
# FIGS. 1I-4(a)-(b) to 1I-6(a)-(b). Induction of ROS in OSCC cell lines. (a). ROS induction in OSCC cell lines following 1 h treatment with 30 μM CPZ (black line) compared to vehicle control. (b). ROS induction in OSCC cell lines following 1 h treatment with 30 μM CPZ is reversed by NAC co-treatment (black line) as indicated in the shift in their peaks to the left.
# ROS levels in OSCC cell lines were examined by flow cytometry using 2,7-dichlorodihydrofluorescein diacetate (DCF-DA; Sigma-Aldrich, St. Louis, Mo.). Cells (3×10^5) were plated in 12-well plates and incubated for 30 min with DCF-DA at 37° C. then treated with 30 μM capsazepine using phenol free media with and without 10 mM NAC. Treated cells were incubated for 1 h at 37° C., harvested, washed twice, and analyzed by FACS.
# SCC25 = assay: Cell cycle analysis by DNA profile FACS, SCC25; type: cell-based, human; conditions: 24 hours
# Description: (§1) In particular, Table 1 provides additional cell cycle distribution data of OSCC cells (%) treated with 0 μM, 30 μM, 60 μM, or 90 μM CPZ for 24 hours. Data for OSCC cell lines HSC3, SCC4, and SCC25 are also provided in diagrams of FIGS. 1G-1, 1G-2, and 1G-3, respectively.
# [1] = system: PC3 prostate cancer cells; assay: Cell viability assay of PC3 cells with and without NAC; type: cell-based, human; conditions: PC3 prostate cancer cells, 24 h
# [2] = system: OSCC cell lines (HSC3, SCC4, and SCC25); assay: Western blot analysis of cleaved PARP; type: cell-based, human; conditions: increasing doses of CPZ, 24 h
# Description: FIG. 1F. […] The Control (Ctrl) is […].
# as §1
# HSC3 [3] = assay: Cell cycle analysis by DNA profile FACS, HSC3; type: cell-based, human; conditions: 24 hours
# Description: as §1
# [4] = system: voltage-activated calcium channels; conditions: cited from earlier work
# [5] = system: nicotinic acetylcholine receptors; conditions: cited from earlier work
# SCC4 = assay: Cell cycle analysis by DNA profile FACS, SCC4; type: cell-based, human; conditions: 24 hours
# Description: as §1
# HSC3 [6] = assay: Additional cell proliferation assay, HSC3; type: cell-based, human; conditions: HSC3, 24 hour treatment
# From the text: Observed reductions in cell proliferation in these additional in vitro studies are as follows: SCC4, 40%; HSC3, 50%; SCC25, 80%; Cal27, 15%; MDA231, 56%; and LnCap, 37%.
# OKF6 cells = assay: Cell viability assay of immortalized non-malignant oral keratinocytes; type: cell-based; conditions: 24 hours
# From the text: FIG. 1D-2. […] Treatment with high concentrations of CAP induces death of normal, non-malignant OKF6 cells. The effect of which was reversed by the pre-treatment with CPZ.
smiles,measurement,setting,value
"Oc1cc2c(cc1O)CN(C(=S)NCCc1ccc(Cl)cc1)CCC2 [CPZ, 2-[2-(4-chlorphenyl)ethylamino-thiocarbonyl]-7,8-dihydroxy-2,3,4,5-tetrahydro-1H-2-benzazepine]",level of ROS,OSCC cell lines,increase in ROS
same,G0/G1,"SCC25; SCC25, CPZ 30 μM",42.92%
same,G2/M,"SCC25; SCC25, CPZ 30 μM",3.3%
same,S,"SCC25; SCC25, CPZ 30 μM",9.01%
same,SubG1,"SCC25; SCC25, CPZ 30 μM",44.77%
same,G0/G1,"SCC25; SCC25, CPZ 60 μM",28.63%
same,G2/M,"SCC25; SCC25, CPZ 60 μM",6.11%
same,S,"SCC25; SCC25, CPZ 60 μM",14.78%
same,SubG1,"SCC25; SCC25, CPZ 60 μM",50.48%
same,G0/G1,"SCC25; SCC25, CPZ 90 μM",17.23%
same,G2/M,"SCC25; SCC25, CPZ 90 μM",2.5%
same,S,"SCC25; SCC25, CPZ 90 μM",10.36%
same,SubG1,"SCC25; SCC25, CPZ 90 μM",69.91%
same,cytotoxicity,[1],significant dose dependent cytotoxicity
same,"cleaved PARP (c-PARP, marker of apoptosis)",[2],induction of cleaved PARP
same,G0/G1,"HSC3 [3]; HSC3, CPZ 30 μM",47.76%
same,G2/M,"HSC3 [3]; HSC3, CPZ 30 μM",20.3%
same,S,"HSC3 [3]; HSC3, CPZ 30 μM",13.47%
same,SubG1,"HSC3 [3]; HSC3, CPZ 30 μM",18.47%
same,G0/G1,"HSC3 [3]; HSC3, CPZ 60 μM",24.09%
same,G2/M,"HSC3 [3]; HSC3, CPZ 60 μM",7.37%
same,S,"HSC3 [3]; HSC3, CPZ 60 μM",11.23%
same,SubG1,"HSC3 [3]; HSC3, CPZ 60 μM",57.31%
same,G0/G1,"HSC3 [3]; HSC3, CPZ 90 μM",23.53%
same,G2/M,"HSC3 [3]; HSC3, CPZ 90 μM",5.08%
same,S,"HSC3 [3]; HSC3, CPZ 90 μM",10.27%
same,SubG1,"HSC3 [3]; HSC3, CPZ 90 μM",61.12%
same,effect on voltage-activated calcium channels,[4],Inhibitis
same,effect on nicotinic acetylcholine receptors,[5],Inhibitis
same,G0/G1,"SCC4; SCC4, CPZ 30 μM",70.77%
same,G2/M,"SCC4; SCC4, CPZ 30 μM",12.14%
same,S,"SCC4; SCC4, CPZ 30 μM",15.08%
same,SubG1,"SCC4; SCC4, CPZ 30 μM",2.01%
same,G0/G1,"SCC4; SCC4, CPZ 60 μM",21.03%
same,G2/M,"SCC4; SCC4, CPZ 60 μM",24.21%
same,S,"SCC4; SCC4, CPZ 60 μM",21.04%
same,SubG1,"SCC4; SCC4, CPZ 60 μM",33.72%
same,G0/G1,"SCC4; SCC4, CPZ 90 μM",15.61%
same,G2/M,"SCC4; SCC4, CPZ 90 μM",31.57%
same,S,"SCC4; SCC4, CPZ 90 μM",24.83%
same,SubG1,"SCC4; SCC4, CPZ 90 μM",27.99%
same,reduction in cell proliferation,HSC3 [6],50%
same,effect of CPZ on CAP-induced reduction in cell viability,OKF6 cells; CAP 150 μM / CPZ 30 μM,reversed the effects
same,"toxicity on normal, non-malignant cells",OKF6 cells; CPZ 30 μM,non-toxic effect; also recorded: no toxicity was observed
